Here are results for seven compounds from DBAASP.

Common to all, as to assay: ≥ marks a high value that may be exact or a test limit, other limits are often not marked, values filed in µg/mL are converted to µM
Assay [1] relates to Enterococcus faecium 5F-10.
Assay [2] concerns Bacillus cereus ATCC 14579.
Assay [3] relates to Proteus mirabilis ATCC 35659.
Assay [4] deals with Bacillus amyloliquefaciens ATCC 23842.
In assay [5] the test system is Enterococcus faecalis 1F-1.
For assay [6], the system named is Bacillus licheniformis ATCC 14580.
Assay [7] concerns Pseudomonas aeruginosa PAO1.
For assay [8], the system named is Bacillus subtilis ATCC 6051.
The subject of assay [9] is Staphylococcus aureus ATCC 29213.
Assay [10] has as its system Salmonella enterica ATCC H9812.
Assay [11] relates to Escherichia coli ATCC 25922.
Assay [12] has as its system Salmonella enterica subsp. enterica serovar Salford IMVS 1710.
Assay [13] concerns Escherichia coli L361.
In assay [14] the test system is Listeria monocytogenes NCTC 7973.
In assay [15] the test system is Pseudomonas fluorescens.
The test system of assay [16] is Escherichia coli O9.
Assay [17] has as its system Staphylococcus aureus NCTC 6571.
The subject of assay [18] is Bacillus cereus ACM 446.
Assay [19] concerns Escherichia coli ATCC 10536.
In assay [20] the test system is Staphylococcus aureus ATCC 9144.
Assay [21] deals with Bacillus subtilis ATCC 6633.
In assay [22] the test system is Escherichia coli DH5alpha.
Assay [23] concerns Klebsiella pneumoniae NDM-1.
The subject of assay [24] is Escherichia coli NDM-1.
For assay [25], the system named is Staphylococcus aureus ATCC 1717.
Assay [26] deals with Bacillus subtilis ATCC 23857.
The test system of assay [27] is Enterobacter cloacae.
The test system of assay [28] is Morganella morganii.
Assay [29] has as its system Klebsiella oxytoca.
The subject of assay [30] is Enterococcus faecalis.
Assay [31] has as its system Citrobacter freundii.
In assay [32] the test system is Klebsiella pneumoniae ATCC 13883.
Assay [33] concerns Staphylococcus aureus JE2.
In assay [34] the test system is Escherichia coli ATCC 15597.
For assay [35], the system named is Pseudomonas aeruginosa ATCC 27853.
In assay [36] the test system is Micrococcus luteus ATCC 49732.
Assay [37] deals with Klebsiella pneumoniae NCTC 5055.
The test system of assay [38] is Staphylococcus aureus ATCC 6538.
Assay [39] has as its system Salmonella typhimurium DA6192.
Assay [40] has as its system Staphylococcus aureus ATCC 25923.
Assay [41] has as its system Escherichia coli C25.

Structures are written as SMILES. Values after ≈ are worked out from the molar mass of the structure shown.

In general, MIC refers to the least concentration at which growth counts as inhibited. Lower therefore signals a more susceptible organism. Regarding `CC(C)C[C@H](NC(=O)[C@H](CC(C)C)NC(=O)[C@H](CCC(=O)O)NC(=O)[C@@H](N)CC(=O)O)C(=O)N[C@@H](CO)C(=O)N[C@@H](CCCN=C(N)N)C(=O)N[C@H](C(=O)O)C(C)C` [DELLSRV], the minimum inhibitory concentration (MIC) in assay [1], in [2], in assay [3], in assay [4], in assay [5] and in [6] was not below 154 µM in each case. For the same compound, the MIC in [7] was more than 154 µM; in assay [8], not below 154 µM; in assay [9], more than 154 µM; in assay [10], not below 77 µM; in assay [11] it was 38.5 µM (≈ 32 µg/mL).
As to `CC[C@H](C)[C@H](NC(=O)[C@H](CO)NC(=O)[C@@H]1CCCN1C(=O)[C@H](C)NC(=O)CNC(=O)[C@H](CC(C)C)NC(=O)[C@H](CCCCN)NC(=O)[C@H](CCCCN)NC(=O)[C@H](CCSC)NC(=O)[C@H](CCCN=C(N)N)NC(=O)[C@H](Cc1c[nH]c2ccccc12)NC(=O)[C@H](CCC(N)=O)NC(=O)[C@H](Cc1c[nH]c2ccccc12)NC(=O)[C@H](CCCN=C(N)N)NC(=O)[C@H](CCCN=C(N)N)NC(=O)[C@H](CS)NC(=O)[C@H](CCCCN)NC(=O)[C@@H](N)Cc1ccccc1)C(=O)N[C@H](C(=O)N[C@@H](CS)C(=O)N[C@H](C(=O)N[C@@H](CCCN=C(N)N)C(=O)N[C@@H](CCCN=C(N)N)C(=O)N[C@@H](C)C(=O)N[C@@H](Cc1ccccc1)C(=O)N[C@@H](C)C(=O)O)C(C)C)[C@@H](C)O` [FKCRRWQWRMKKLGAPSITCVRRAFA], the minimal inhibitory concentration (MIC) in assay [12] was 4 µM (≈ 12.8 µg/mL); in [13], 4 µM (≈ 12.8 µg/mL); in assay [14] it was 4 µM (≈ 12.8 µg/mL); in assay [15], 6 µM (≈ 19.2 µg/mL); in assay [16], 8 µM (≈ 25.6 µg/mL); in assay [17], 6 µM (≈ 19.2 µg/mL). In addition, the MIC in [18] amounted to 8 µM (≈ 25.6 µg/mL).
Turning to `CC[C@H](C)[C@H](NC(=O)CN)C(=O)NCC(=O)N[C@@H](C)C(=O)N[C@H](C(=O)N[C@@H](CC(C)C)C(=O)N[C@@H](CCCCN)C(=O)N[C@H](C(=O)N[C@@H](CC(C)C)C(=O)N[C@H](C(=O)N[C@H](C(=O)NCC(=O)N[C@@H](CC(C)C)C(=O)N1CCC[C@H]1C(=O)N[C@@H](C)C(=O)N[C@@H](C)C(=O)N[C@H](C(=O)N[C@@H](CO)C(=O)N[C@@H](Cc1c[nH]c2ccccc12)C(=O)N[C@H](C(=O)N[C@@H](CCCCN)C(=O)N[C@@H](CCCN=C(N)N)C(=O)N[C@@H](CCCCN)C(=O)N[C@@H](CCCN=C(N)N)C(=O)N[C@@H](CCC(N)=O)C(=O)N[C@@H](CCC(N)=O)C(N)=O)[C@@H](C)CC)[C@@H](C)CC)[C@@H](C)O)[C@@H](C)O)C(C)C)C(C)C` [GIGAVLKVLTTGLPAAISWIKRKRQQ], the minimum inhibitory concentration (MIC) in [19] came to 4.1 µM (≈ 11.5 µg/mL); in [20], 4.2 µM (≈ 11.8 µg/mL); in assay [21], 3.9 µM (≈ 10.9 µg/mL); in assay [22], 4.2 µM (≈ 11.8 µg/mL).
On to `CC[C@H](C)[C@H](NC(=O)CN)C(=O)N[C@@H](CCCCN)C(=O)N[C@@H](C)C(=O)NCC(=O)N[C@H](C(=O)N[C@H](C(=O)N[C@H](C(=O)N[C@@H](CCCCN)C(=O)N[C@H](C(=O)N[C@@H](CCCCN)C(=O)N[C@@H](CCCCN)C(N)=O)[C@@H](C)CC)[C@@H](C)CC)[C@@H](C)CC)[C@@H](C)CC` [GIKAGIIIKIKK], for which the MIC is 22.6 µM (≈ 29 µg/mL) in assay [23]; 16 µM (≈ 20.5 µg/mL) in assay [24]; not below 128 µM in [25]; 16 µM (≈ 20.5 µg/mL) in assay [26]; 22.6 µM (≈ 29 µg/mL) in assay [27]; not below 128 µM in [28]. Also, the MIC in [29] is not below 32 µM; in [30] it was not below 64 µM; in assay [31], 16 µM (≈ 20.5 µg/mL); in assay [11], 16 µM (≈ 20.5 µg/mL).
As for `CC(C)C[C@H](NC(=O)[C@H](CC(C)C)NC(=O)[C@H](CCCCN)NC(=O)[C@H](CC(C)C)NC(=O)CNC(=O)[C@H](CC(C)C)NC(=O)[C@H](CCCCN)NC(=O)[C@H](CC(C)C)NC(=O)[C@H](CC(C)C)NC(=O)[C@H](CC(C)C)NC(=O)[C@H](CCCCN)NC(=O)[C@H](CC(C)C)NC(=O)CN)C(N)=O` [GLKLLLKLGLKLL], the MIC in assay [32] is 25 µM (≈ 35.5 µg/mL); in assay [7], more than 25 µM; in assay [33] it was 1.56 µM (≈ 2.22 µg/mL); in [11], more than 25 µM.
As to `CC[C@H](C)[C@H](N)C(=O)N[C@H](C(=O)N[C@@H](CCCCN)C(=O)N[C@@H](CCC(N)=O)C(=O)N[C@H](C(=O)N[C@H](C(=O)N[C@@H](CCCCN)C(=O)N[C@@H](CCC(N)=O)C(=O)N[C@@H](CC(C)C)C(=O)N[C@@H](CC(N)=O)C(=O)N[C@@H](CCCN=C(N)N)C(=O)N[C@@H](CCC(N)=O)C(=O)N[C@H](C(=O)N[C@@H](CCCCN)C(=O)N[C@H](C(=O)N[C@@H](CCC(N)=O)C(=O)N[C@@H](CO)C(=O)N[C@@H](CCCCN)C(=O)O)[C@@H](C)CC)[C@@H](C)O)[C@@H](C)O)[C@@H](C)CC)[C@@H](C)O` [ITKQITKQLNRQTKIQSK], the minimal inhibitory concentration (MIC) was not below 100 µM in assay [34]; more than 100 µM in assay [35]; not below 100 µM in assay [36]; not below 100 µM in assay [37]; more than 100 µM in [38]; not below 100 µM in assay [21]. In [39], this compound displayed an MIC not below 100 µM.
In the case of `CC[C@H](C)[C@H](NC(=O)CNC(=O)[C@H](CCCN=C(N)N)NC(=O)[C@H](Cc1ccc(O)cc1)NC(=O)[C@@H](NC(=O)[C@H](CCCN=C(N)N)NC(=O)[C@H](Cc1ccccc1)NC(=O)[C@@H](N)Cc1c[nH]c2ccccc12)C(C)C)C(=O)N[C@@H](Cc1ccc(O)cc1)C(=O)N[C@@H](CCCN=C(N)N)C(=O)N[C@@H](CCCN=C(N)N)C(=O)N[C@@H](CCCN=C(N)N)C(N)=O` [WFRVYRGIYRRR], the MIC in assay [40] was 72 µM (≈ 124 µg/mL); in assay [41], not below 72 µM.
